Reference: patent US20150038404A1, “MACROCYCLIC COMPOUNDS” (University of Florida Research Foundation, priority 2012, published 2015)

Key:
Assay type in all cases: cell-based
[1] = test system: BEAS-2B cells; experiment: Morphology of elastase-treated bronchial epithelial cells; conditions: within 2 h of treatment with human neutrophil elastase
Procedure: FIG. 4. Human neutrophil elastase induces changes in morphology of BEAS-2B cells within 2 h of treatment.
An apparent change in cellular morphology of bronchial epithelial cells was observed within 2 h of elastase treatment, with cells becoming rounded, in contrast to the elongated appearance of control cells (FIG. 4). […] These observations indicated intercellular adhesion molecules as a possible direct target of exogenous elastase in bronchial epithelial cells. […] Several proteases have been implicated in the posttranslational modification of membrane-bound ICAM-1 (mICAM-1) to soluble ICAM-1 (sICAM-1), depending on the cell type. In endothelial, fibroblast and astrocyte cultures, sICAM-1 generation is mediated by a matrix metalloprotease or ADAM 17^24.

[2] = test system: sICAM-1; experiment: Measurement of sICAM-1 levels in culture supernatants (AlphaLisa); conditions: elastase-challenged BEAS-2B cells, 6 h, P<0.05
Procedure: A significant difference in expression of fully glycosylated mICAM-1 (˜100 kDa) was observed between the control and elastase treatment, with maximum expression in the former. […] This inverse relationship is consistent with measurements of sICAM-1 levels in the culture supernatants and provided internal validation of the direct effects of elastase with the proteolytic cleavage of ICAM-1.
BEAS-2B cells (60,000) were seeded in collagen-coated 24-well plates. After overnight incubation, the media was replaced with supplement-free media and the cells were further incubated for 24 h. At the end of the incubation period, cells were replenished with new supplement-free media prior to treatment. Stock human neutrophil elastase solution was prepared in sodium acetate and test aliquots were further diluted in supplement-free medium. […] Control cells were treated with DMSO (1%) and sodium acetate in supplement-free medium (4%). The cells were incubated for 6 h. Culture supernatants were collected and sICAM-1 levels were determined using ICAM-1 AlphaLisa® Kit (Perkin Elmer) according to the manufacturer's instruction.

[3] = test system: BEAS-2B cells; experiment: Cell viability (MTT) assay of bronchial epithelial cells challenged with elastase; conditions: within 24 h of treatment, read-out: IC50 of anti-proliferative activity on bronchial epithelial cells
Procedure: FIG. 3. […] HNE induced cell death after 24 h and this was alleviated by cotreatment with compound 1.
Bronchial epithelial cells (BEAS-2B, ATCC) were grown in bronchial epithelial basal media (BEBM, Lonza) supplemented with bronchial epithelial growth factors (Lonza) under a humidified environment with 5% CO2 at 37° C. BEAS-2B (5,000) cells were seeded in collagen-coated 96-well plates and treated with varying concentrations of elastase after 24 h of seeding. […] The cells were incubated for an additional 24 h before the addition of the MTT reagent. Cell viability was measured according to the manufacturer's instructions (Promega). IC50 calculations were done by GraphPad Prism 5.03 based on duplicate experiments.

Molecule | Effect on elastase-induced change in morphology of BEAS-2B cells [1] | Concentration giving significant decrease of sICAM-1 levels [2] [nM] | IC50 [3] [µM]
CC(C)(C)C(=O)Oc1ccc(S(=O)(=O)Nc2ccccc2C(=O)NCC(=O)O)cc1 [sivelestat] | reverted | 320 | –
Elastase: human neutrophil elastase used to challenge bronchial epithelial cells | – | – | 0.082
